In brackets after ≈: the same amount, converted by molar mass.
What was measured:
[1] = biological target: T1, Peroxisome proliferator-activated receptor delta (Homo sapiens, UniProt Q03181); assay: Partial agonist activity at PPARdelta (unknown origin)
T1 sequence (Q03181 whole entry): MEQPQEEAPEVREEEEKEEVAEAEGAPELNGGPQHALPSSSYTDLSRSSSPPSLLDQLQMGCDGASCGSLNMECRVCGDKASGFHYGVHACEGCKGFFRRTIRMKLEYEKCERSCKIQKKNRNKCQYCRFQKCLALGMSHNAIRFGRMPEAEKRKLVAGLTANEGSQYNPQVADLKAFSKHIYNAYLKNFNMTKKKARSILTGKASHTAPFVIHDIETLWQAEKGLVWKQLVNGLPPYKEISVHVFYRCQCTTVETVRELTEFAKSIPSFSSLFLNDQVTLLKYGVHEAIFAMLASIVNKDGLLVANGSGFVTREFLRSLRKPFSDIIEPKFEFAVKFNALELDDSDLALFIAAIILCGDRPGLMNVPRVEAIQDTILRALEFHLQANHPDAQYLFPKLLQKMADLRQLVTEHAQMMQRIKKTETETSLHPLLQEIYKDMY

[2] = buffer
[3] = biological target: Prostaglandin E2 receptor EP1 subtype (Homo sapiens, UniProt P34995); assay: Antagonist activity at EP1 receptor (unknown origin); format: functional
physchem [4] = conditions: buffer
[5] = Lipophilicity, logD of compound; format: physicochemical; conditions: octanol/water
[6] = Permeability of compound in human Caco-2 cells; format: ADME, cell-based; conditions: read-out: permeability
[7] = biological target: Proto-oncogene tyrosine-protein kinase Src (Homo sapiens, UniProt P12931); assay: Inhibition of Src (unknown origin)
[8] = biological target: Tyrosine-protein kinase ABL1 (Homo sapiens, UniProt P00519); assay: Inhibition of Abl kinase (unknown origin)
[9] = Inhibition of Integrin alpha-L (unknown origin)/Intercellular adhesion molecule 1 (unknown origin) interaction; design: species or system Homo sapiens
physchem [10] = conditions: octanol/water
[11] = test system: Human immunodeficiency virus 1; assay: Antiviral activity against HIV-1; format: functional, organism-based
[12] = test system: Mycobacterium tuberculosis; assay: microbe, parasite or virus in culture
[13] = Antagonist activity at GlyN receptor (unknown origin); design: species or system Homo sapiens
MIA PaCa-2 = assay: Antiproliferative activity against human MIA PaCa-2 cells; format: functional, cell-based
Plasmepsin II = Plasmepsin II (Plasmodium falciparum, UniProt P46925); assay: Inhibition of Plasmodium falciparum 3D7 plasmepsin II
Chain of Plasmepsin II (P46925 whole entry): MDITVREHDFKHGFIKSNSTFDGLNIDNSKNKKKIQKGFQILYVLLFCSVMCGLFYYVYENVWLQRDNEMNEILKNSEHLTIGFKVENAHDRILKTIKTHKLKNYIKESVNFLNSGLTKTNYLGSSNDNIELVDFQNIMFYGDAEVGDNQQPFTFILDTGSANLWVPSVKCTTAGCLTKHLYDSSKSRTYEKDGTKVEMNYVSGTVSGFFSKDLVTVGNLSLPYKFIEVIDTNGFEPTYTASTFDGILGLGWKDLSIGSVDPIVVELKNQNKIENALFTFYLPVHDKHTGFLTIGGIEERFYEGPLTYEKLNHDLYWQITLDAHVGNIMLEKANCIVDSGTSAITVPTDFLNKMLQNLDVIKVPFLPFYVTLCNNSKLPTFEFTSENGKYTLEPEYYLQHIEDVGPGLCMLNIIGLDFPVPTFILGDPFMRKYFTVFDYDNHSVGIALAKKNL

Chain of Proto-oncogene tyrosine-protein kinase Src (P12931 2-536 limits assumed): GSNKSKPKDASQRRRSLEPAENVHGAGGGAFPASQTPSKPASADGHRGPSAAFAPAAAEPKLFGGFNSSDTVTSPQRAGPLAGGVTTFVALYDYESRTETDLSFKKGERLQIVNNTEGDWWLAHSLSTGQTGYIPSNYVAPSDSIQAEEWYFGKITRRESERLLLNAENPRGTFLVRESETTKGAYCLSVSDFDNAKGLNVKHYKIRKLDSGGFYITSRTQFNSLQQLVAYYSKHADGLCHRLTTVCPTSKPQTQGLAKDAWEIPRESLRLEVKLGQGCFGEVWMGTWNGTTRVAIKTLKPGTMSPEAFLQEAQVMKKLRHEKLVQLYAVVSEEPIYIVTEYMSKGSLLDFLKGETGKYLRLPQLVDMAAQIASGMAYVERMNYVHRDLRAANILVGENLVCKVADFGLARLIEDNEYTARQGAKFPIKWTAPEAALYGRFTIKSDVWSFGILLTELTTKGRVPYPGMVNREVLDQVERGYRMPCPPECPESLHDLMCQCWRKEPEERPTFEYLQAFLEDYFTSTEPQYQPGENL
Chain of Tyrosine-protein kinase ABL1 (P00519 whole entry): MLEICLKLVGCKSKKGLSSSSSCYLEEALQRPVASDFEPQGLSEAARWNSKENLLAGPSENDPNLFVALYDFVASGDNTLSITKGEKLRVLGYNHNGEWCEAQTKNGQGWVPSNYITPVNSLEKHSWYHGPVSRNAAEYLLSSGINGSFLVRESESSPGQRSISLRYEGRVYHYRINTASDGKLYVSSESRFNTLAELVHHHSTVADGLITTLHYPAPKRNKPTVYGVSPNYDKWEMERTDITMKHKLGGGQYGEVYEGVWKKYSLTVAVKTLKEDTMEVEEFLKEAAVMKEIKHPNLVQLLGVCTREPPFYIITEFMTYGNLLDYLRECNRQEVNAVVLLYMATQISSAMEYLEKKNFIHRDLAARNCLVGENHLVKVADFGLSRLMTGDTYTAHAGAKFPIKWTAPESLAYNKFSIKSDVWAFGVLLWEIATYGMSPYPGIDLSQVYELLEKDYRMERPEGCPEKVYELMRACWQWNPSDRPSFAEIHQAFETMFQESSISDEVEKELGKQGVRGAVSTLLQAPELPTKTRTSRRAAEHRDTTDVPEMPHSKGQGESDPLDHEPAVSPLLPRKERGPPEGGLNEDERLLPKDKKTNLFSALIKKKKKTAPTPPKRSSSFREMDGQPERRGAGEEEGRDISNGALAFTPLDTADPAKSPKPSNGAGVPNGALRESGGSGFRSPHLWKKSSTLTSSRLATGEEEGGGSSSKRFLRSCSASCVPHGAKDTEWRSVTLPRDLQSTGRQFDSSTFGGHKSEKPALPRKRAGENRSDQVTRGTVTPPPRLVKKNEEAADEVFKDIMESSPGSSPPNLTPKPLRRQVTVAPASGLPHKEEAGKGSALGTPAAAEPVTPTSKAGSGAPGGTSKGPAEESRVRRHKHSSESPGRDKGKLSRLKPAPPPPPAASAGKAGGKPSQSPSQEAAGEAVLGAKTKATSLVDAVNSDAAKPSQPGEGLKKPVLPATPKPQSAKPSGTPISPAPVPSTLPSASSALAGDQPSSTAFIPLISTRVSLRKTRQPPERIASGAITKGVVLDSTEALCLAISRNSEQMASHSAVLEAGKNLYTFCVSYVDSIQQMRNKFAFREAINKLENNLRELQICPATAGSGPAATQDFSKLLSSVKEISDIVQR
Chain of Prostaglandin E2 receptor EP1 subtype (P34995 whole entry): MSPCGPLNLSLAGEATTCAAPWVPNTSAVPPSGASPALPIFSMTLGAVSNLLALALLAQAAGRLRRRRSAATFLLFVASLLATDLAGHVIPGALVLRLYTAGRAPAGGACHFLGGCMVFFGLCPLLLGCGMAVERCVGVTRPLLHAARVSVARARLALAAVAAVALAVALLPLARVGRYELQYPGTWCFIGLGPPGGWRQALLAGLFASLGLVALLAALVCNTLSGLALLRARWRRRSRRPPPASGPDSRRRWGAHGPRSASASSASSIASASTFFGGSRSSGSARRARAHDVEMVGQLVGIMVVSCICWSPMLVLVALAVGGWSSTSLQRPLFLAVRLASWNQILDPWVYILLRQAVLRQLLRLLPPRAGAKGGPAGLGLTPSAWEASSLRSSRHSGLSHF

Structure (SMILES): CCCCOc1ccc(-c2cccc(C(=O)O)c2)cc1CNC(=O)c1ccc(C(F)(F)F)cc1F
- EC50 [1]: 170 nM
- Therm_solubility [2]: 1 µg/mL

Structure (SMILES): CCNCc1ccc(NC(=O)c2cc(C)n(Cc3cc(Cl)ccc3OCc3ccccc3)n2)cc1
- pIC50 [3]: 7
- solubility thermodynamic (physchem [4]): 690 µg/mL

Structure (SMILES): CCCN(CCOC)c1cc(C)nc2c(-c3ccc(OC)cc3OC)c(C)nn12
- logD [5]: 2.78
- solubility thermodynamic (physchem [4]): 10000 µg/mL

Structure (SMILES): CCCCOc1ccc(-c2cncc(C(=O)O)c2)cc1CNC(=O)c1ccc(C(F)(F)F)cc1F
- EC50 [1]: 220 nM
- solubility thermodynamic (physchem [4]): 7.6 µg/mL

Structure (SMILES): CCCCOc1ccc(-c2c(C)ncc(C(=O)O)c2C)cc1CNC(=O)c1ccc(C(F)(F)F)cc1F
- EC50 [1]: 76 nM

Structure (SMILES): COc1cc2[nH]c(C)c(-c3ccccc3)c(=O)c2cc1Cl
- logD [5]: 1.65
- solubility thermodynamic (physchem [4]): 6 µM

Structure (SMILES): Clc1ccc(C(Cl)Cn2ncc3c(NCc4ccncc4)ncnc32)cc1 (stereo unspecified)
- Papp [6]: 174 ×10⁻⁶ cm/s
- IC50 [7]: 56400 nM
- IC50 [8]: 56400 nM
- solubility thermodynamic (physchem [4]): 12.3 µg/mL

Structure (SMILES): CC(=O)N1CCN(C(=O)/C=C/c2ccc(Sc3ccc4[nH]ccc4c3)c(Cl)c2)CC1
- IC50 [9]: 20 nM
- solubility thermodynamic (physchem [4]): 0.8 µg/mL

Structure (SMILES): C=CC(=O)Nc1cccc(N2C(=O)N(Cc3ccccc3)Cc3cnc(Nc4ccc(N5CCN(C)CC5)cc4OC)nc32)c1
- Therm_solubility [2]: 4000 µg/mL

Structure (SMILES): Cc1c(-c2ccc(Cc3ccc(OC(F)(F)F)cc3)cc2)[nH]c2cc(Cl)ccc2c1=O
- logP (physchem [10]): 6.4

Structure (SMILES): Cc1c(-c2ccc(-c3ccc(OC(F)(F)F)cc3)nc2)[nH]c2ccccc2c1=O
- logP (physchem [10]): 4.2

Structure (SMILES): CC(C)(C)OC(=O)N1CCN(c2ncc(OCc3ccncc3C#N)cn2)CC1
- logD [5]: 3.3
- solubility thermodynamic (physchem [4]): 24 µM

Structure (SMILES): FC(F)(F)c1c(N2CCC(c3ccccc3)CC2)ccn2c(CC3CC3)nnc12
- Papp [6]: 12 ×10⁻⁶ cm/s
- logP (physchem [10]): 4.6

Structure (SMILES): COc1ccc(-c2oc3cc(O[C@@H]4O[C@H](CO[C@@H]5O[C@@H](C)[C@H](O)[C@@H](O)[C@H]5O)[C@@H](O)[C@H](O)[C@H]4O)cc(O)c3c(=O)c2Br)cc1O
- solubility thermodynamic (physchem [4]): 100000 µg/mL
- logP (physchem [10]): 0.93

Structure (SMILES): O=C(C(=O)N1CCN(C(=O)c2ccccc2)CC1)c1c[nH]c2c(-n3ccnn3)ncc(F)c12
- EC50 [11]: 0.006 nM
- solubility thermodynamic (physchem [4]): 7 µg/mL

Structure (SMILES): O=C(Nc1nnc(C2CC2)o1)NC12CC3CC(CC(C3)C1)C2
- solubility thermodynamic (physchem [4]): 38.3 µg/mL
- MIC [12]: 12.5 µg/mL (≈ 41.3 µM)

Structure (SMILES): Cn1cc(NC(=O)NC23CC4CC(CC(C4)C2)C3)cn1
- solubility thermodynamic (physchem [4]): 41.1 µg/mL
- MIC [12]: 50 µg/mL (≈ 182 µM)

Structure (SMILES): Cc1cc(NC(=O)NC23CC4CC(CC(C4)C2)C3)no1
- solubility thermodynamic (physchem [4]): 25.9 µg/mL
- MIC [12]: 27 µg/mL (≈ 98.1 µM)

Structure (SMILES): CC(=O)N1CCN(C(=O)/C=C/c2ccc(Sc3ccc4c(c3)OCCO4)c(Cl)c2)CC1
- IC50 [9]: 40 nM
- solubility thermodynamic (physchem [4]): 4.1 µg/mL

Structure (SMILES): CN1CCc2c([N+](=O)[O-])cc3nc(O)c(O)nc3c2C1
- IC50 [13]: 63 nM
- solubility thermodynamic (physchem [4]): 8.6 µg/mL

Structure (SMILES): CC1(C)C(N(O)C(=O)Nc2ccc(Cl)cc2)N(c2ccc(Cl)cc2)C(=O)N1CC(=O)N/N=C/C=C/c1ccc([N+](=O)[O-])o1 (stereo unspecified)
- EC50 (MIA PaCa-2): 4100 nM
- solubility thermodynamic (physchem [4]): 0.032 µM

Structure (SMILES): Cc1cc2ccccc2n1CCNC(=O)c1ccc(-c2nnn[nH]2)cc1
- Therm_solubility [2]: 0.257 µM

Structure (SMILES): Cc1cc(C(=O)Nc2ccccc2)nn1Cc1cc(Cl)ccc1OCc1ccccc1
- pIC50 [3]: 7.4

Structure (SMILES): Fc1ccc(CNc2ncnc3c2cnn3CC(Cl)c2ccc(Cl)cc2)cc1 (stereo unspecified)
- Papp [6]: 322 ×10⁻⁶ cm/s
- IC50 [7]: 8100 nM
- IC50 [8]: 8100 nM
- solubility thermodynamic (physchem [4]): 0.04 µg/mL

Structure (SMILES): CCCCCc1ccc(-c2cc(CCC(=O)O)c3c(=O)n(CC4CCCO4)c(N)nc3c2)cc1 (stereo unspecified)
- IC50 (Plasmepsin II): 50 nM
- solubility thermodynamic (physchem [4]): 0.1 µg/mL

Structure (SMILES): Nc1nc2cc(-c3ccc(CCCc4ccccc4)cc3)cc(CCC(=O)O)c2c(=O)n1CC1CCCO1 (stereo unspecified)
- IC50 (Plasmepsin II): 16700 nM
- Therm_solubility [2]: 0.17 µg/mL

Structure (SMILES): COc1cc2c(cc1OC)CN(C(=O)/C=C/c1c(-c3ccccc3)n(C)c3ncccc13)CC2
- Therm_solubility [2]: 141 µg/mL

— ChEMBL document CHEMBL5120754, “Structural modification aimed for improving solubility of lead compounds in early phase drug discovery” (Bioorg Med Chem, 2022)
